Assay [1] deals with brown rice planthopper (Nilaparvata lugens). As to the kind of experiment: Metamorphosis inhibitory activity against brown rice planthopper nymphs. It is filed as in vivo. The settings on record: sprayed rice plants, 3rd instar nymphs, after 10 days. The method, then: Metamorphosis inhibitory activity against brown rice planthopper nymphs
An emulsifiable concentrate prepared according to Formulation Example 1 was diluted with water to make a predetermined concentration. The dilution was sprayed onto rice plants cultivated in polyethylene cups at a rate of 20 ml/2 pots on a turning table. After air-drying, the plants were infested with about ten 3rd instar nymphs of brown rice planthopper (Nilaparvata lugens). After 10 days, the number of normal adults was counted to obtain an emergence inhibitory rate.

The test system of assay [2] is cotton aphids (Aphis gossypil). As to the kind of experiment: Reproduction inhibitory activity against cotton aphids. It is filed as in vivo. The conditions noted are these: 10 ppm; sprayed potted cotton plants infested with 1st instar nymphs, one week after spraying. The method, then:
Reproduction inhibitory activity against cotton aphids
An emulsifiable concentrate prepared according to Formulation Example 1 was diluted with water to make a predetermined concentration. The dilution was sprayed onto potted cotton plants (in a stage of 8-9 days after sowing) infested with 1st instar nymphs of cotton aphids (Aphis gossypil) at a rate of 30 ml/2 pots on a turning table. Before spraying and one week after spraying, the humber of nymphs and aduts was counted, and a reproduction inhibitory index was expressed by the following equation: [formula] wherein the judgement of activity is based on the following standard: A: less than 1 (excellent effect)

Where [3] appears, read: Nilaparvata lugens, 240 h, 0.05 ppm, read-out: Inhibitory rate (emergence inhibitory rate).
Where [4] appears, read: Nilaparvata lugens, 240 h, 5 ppm, read-out: Inhibitory rate (emergence inhibitory rate).

With `CC(C)COCc1ccc(OCCNC(=O)C2CC2)c(Cl)c1` [Compound No. 10, N-{2-[2-Chloro-4-(2-methylpropoxymethyl)phenoxy]ethyl}-cyclopropane carboxyamide], the inhibition at 0.05 ppm in assay [1] (setting [3]) amounted to 100%. For the same compound, in assay [1] (setting [4]), the inhibition at 5 ppm was 100%.

In the case of `O=C(NCCOc1ccc(Oc2cccc(F)c2)cc1Cl)C1CC1` [compound 5, N-{2-[2-Chloro-4-(3-fluorophenoxy)phenoxy]ethyl}-cyclopropane carboxyamide], the inhibition at 0.05 ppm in assay [1] (setting [3]) was determined as 100%. For the same compound, the inhibition at 5 ppm in assay [1] (setting [4]) is 100%. In the case of `O=C(NCCOc1ccc(Oc2cc(F)cc(F)c2)cc1Cl)C1CC1` [Compound No. 1, N-{2-[2-Chloro-4-(3,5-difluorophenoxy)phenoxy]ethyl}-cyclopropane carboxyamide], the inhibition at 0.05 ppm in assay [1] (setting [3]) was 100%. Moreover, the inhibition at 5 ppm in assay [1] (setting [4]) was 100%. Further, the reproduction inhibitory index result in assay [2] is “A (less than 1 (excellent effect))”. Take `O=C(NCCOc1ccc(Cc2ccccc2)cc1Cl)C1CC1` [compound 13, N-[2-(4-Benzyl-2-chlorophenoxy)ethyl]-cyclopropane carboxyamide]: in assay [1] (setting [3]), the inhibition at 0.05 ppm is 100%. Further, in assay [1] (setting [4]), the inhibition at 5 ppm came to 100%.

As for `O=C(NCCOc1ccc(Oc2cccc(Cl)c2)cc1Cl)C1CC1` [compound 6, N-{2-[2-Chloro-4-(3-chlorophenoxy)phenoxy]ethyl}-cyclopropane carboxyamide], the inhibition at 0.05 ppm in assay [1] (setting [3]) was determined as 100%. The inhibition at 5 ppm in assay [1] (setting [4]) came to 100%. `O=C(NCCOc1cc(Oc2ccccc2)ccc1Cl)C1CC1` [compound 8, N-[2-(2-Chloro-5-phenoxyphenoxy)ethyl]-cyclopropane carboxyamide]: the inhibition at 0.05 ppm in assay [1] (setting [3]) worked out at 100%. In addition, the inhibition at 5 ppm in assay [1] (setting [4]) stood at 100%. For the compound `Fc1cc(F)cc(Oc2ccc(OCCNC(=S)C3CC3)c(Cl)c2)c1` [compound 4, N-{2-[2-Chloro-4-(3,5-difluorophenoxy)phenoxy]ethyl}-cyclopropane thiocarboxyamide], the inhibition at 0.05 ppm in assay [1] (setting [3]) is 100%. The inhibition at 5 ppm in assay [1] (setting [4]) was found to be 100%. As to `S=C(NCCOc1ccc(Oc2cccc(Cl)c2)cc1Cl)C1CC1` [compound 16, N-{2-[2-Chloro-4-(3-chlorophenoxy)phenoxy]ethyl}-cyclopropane thiocarboxyamide], the inhibition at 0.5 ppm in assay [1] (Nilaparvata lugens, 240 h, 0.5 ppm, read-out: Inhibitory rate (emergence inhibitory rate)) was found to be 100%. For the compound `O=C(NCCOc1ccc(Oc2ccccc2)cc1)C1CC1` [A, reference compound], the inhibition at 5 ppm in assay [1] (setting [4]) was 0%. Consider `CCC(CC)Cc1ccc(OCCNC(=O)C2CC2)c(Cl)c1` [compound 12, N-{2-[2-Chloro-4-(2-ethylbutyl)phenoxy]ethyl}-cyclopropane carboxyamide], for which the inhibition at 0.05 ppm in assay [1] (setting [3]) worked out at 100%. Further, the inhibition at 5 ppm in assay [1] (setting [4]) was 100%. `O=C(NCCOc1ccc(Oc2ccc(F)cc2F)cc1Cl)C1CC1` [compound 7, N-{2-[2-Chloro-4-(2,4-difluorophenoxy)phenoxy]ethyl}-cyclopropane carboxyamide]: the inhibition at 5 ppm in assay [1] (setting [4]) turned out to be 100%.

As to `S=C(NCCOc1ccc(Cc2ccccc2)cc1Cl)C1CC1` [Compound No. 3, N-[2-(4-Benzyl-2-chlorophenoxy)ethyl]-cyclopropane thiocarboxyamide], in assay [1] (setting [3]), the inhibition at 0.05 ppm was 100%. In assay [1] (setting [4]), the inhibition at 5 ppm amounted to 100%.

Take `CCC(C)Oc1ccc(OCCNC(=O)C2CC2)c(Cl)c1` (stereo not drawn) [Compound No. 14, N-{2-[2-Chloro-4-(1-methylpropoxy)phenoxy]ethyl}-cyclopropane carboxyamide]: the inhibition at 0.05 ppm in assay [1] (setting [3]) amounted to 100%. Also, the inhibition at 5 ppm in assay [1] (setting [4]) turned out to be 100%. With `O=C(NCCOc1ccc(Oc2ccccc2)cc1Cl)C1CC1` [compound 15, N-[2-(2-Chloro-4-phenoxyphenoxy)ethyl]-cyclopropane carboxyamide], the inhibition at 5 ppm in assay [1] (setting [4]) was found to be 100%.

With `CCC(C)Oc1ccc(OCCNC(=S)C2CC2)c(Cl)c1` (stereo not drawn) [compound 11, N-{2-[2-Chloro-4-(1-methylpropoxy)phenoxy]ethyl}-cyclopropane thiocarboxyamide], the “Inhibitory rate (emergence inhibitory rate)” value in assay [1] (0.05 ppm) and in assay [1] (5 ppm) was 100% in each case.

These data come from patent US5364966A, “Amide derivatives, their production processes and their compositions for the control of insect pests” (Sumitomo Chemical Company, Limited, priority 1991, dated 1994).
